In patent publication US5103014A, “Certain 3,3'-[[[(2-phenyl-4-thiazolyl)methoxy]phenyl]methylene]dithiobis-propano ic acid derivatives” (American Home Products Corporation, priority 1990, dated 1992):
Where two headings read alike, the source gives them in different places. Each block holds one molecule with its values, some of them ahead of it.

Legend:
[1] = test system: LTD4 induced bronchoconstriction; experiment: In vivo inhibition of LTD4 induced bronchospasm in guinea pigs (exogenously administered leukotrienes); design: species or system guinea pig; conditions: 10 minutes before induction of bronchospasm (LTD4)
[2] = test system: acute inflammatory response (carrageenan paw edema); experiment: Rat carrageenan paw edema assay; format: in vivo; conditions: po, 50 mg/kg peroral, 1 hour prior to carrageenan, edema at 3 hours
Description: The compounds of the invention are tested in the rat carrageenan paw edema assay to determine their ability to inhibit the acute inflammatory response. 140-180 gm male Sprague-Dawley rats, in groups of 6 animals, are injected subcutaneously in the right paw with 0.1 ml of 1% carrageenan at zero time. Mercury plethysmographic readings (ml) of the paw are made at zero time and 3 hours later. Test compounds are suspended or dissolved in 0.5% methylcellulose and given perorally 1 hour prior to carrageenan administration. The increase in paw volume (edema in ml.) produced by the carrageenan is measured. […] Unpaired Student's t-test is used to determine statistical significance.

[3] = test system: ovalbumin induced bronchospasm; experiment: In vivo inhibition of ovalbumin induced bronchospasm in sensitized guinea pigs (endogenous mediators); design: species or system guinea pig; conditions: 25 mg/kg, intragastrically, 10 minutes before intravenous ovalbumin challenge
Description: The assay of this Example measures the in vivo ability of the compounds of the invention to inhibit the bronchospasm induced in guinea pigs by endogenous mediators of the bronchoconstriction.
Male Hartley strain guinea pigs weighing 250-350 g are sensitized to chicken ovalbumin (OA) (10 mg i.p.) on days 1 and 3 and used starting on day 26. The animals are anesthetized with pentobarbital sodium (50 mg/kg, i.p.), bilateral vagotomy is performed, and the jugular vein is cannulated for injection of drugs and the carotid artery for monitoring blood pressure. The trachea is cannulated for artificial ventilation by miniature Starling pump and for indirect measurement of respiratory volume changes as described, infra. Succinylcholine (2 mg/kg, i.v.) is administered to arrest spontaneous respiration. […]
Respiratory volume changes are determined by a calibrated piston whose travel is recorded, via a linear transducer, on a Beckman Dynograph recorder. Maximal bronchoconstrictor volume is determined by clamping off the trachea at the end of the experiment. Overflow volumes at minutes 1, 3 and 5 are obtained from the recorded charts.
Area under the volume overflow curve (AUC) is estimated, using the overflow values at 1, 3 and 5 minutes, and expressed as a percentage of the maximal overflow AUC (equation 1): [formula] […]

[4] = test system: 5,12-diHETE synthesis by rat glycogen-elicited polymorphonuclear leukocytes; experiment: Inhibition of 5,12-diHETE synthesis by rat glycogen-elicited polymorphonuclear leukocytes; format: cell-based; conditions: Leukocyte, rat PMN
Description: This is especially true with respect to 5,12-diHETE, which is also denoted as LTB4 [see Ford-Hitchinson, J. Roy. Soc. Med., 74, 831 (1981)]. The assay of this Example measures the ability of the compounds of the invention to inhibit the synthesis of 5,12-diHETE by rat glycogen-elicited polymorphonuclear leukocytes.
(§1) Peritoneal PMN are obtained from female Wistar rats (150-250 g) that received an i.p. injection of 6% glycogen (10 ml). After 24 hours, rats are killed by CO2 asphyxiation and peritoneal cells are harvested by peritoneal lavage using Ca^++ and Mg^++ free Hanks' balanced salt solution (HBSS). The peritoneal exudate is centrifuged at 400 g for 10 minutes. After centrifugation, the lavaged fluid is removed and the cell pellet is resuspended in HBSS containing Ca^++ and Mg^++ and 10 mM L-cysteine at a concentration of 2×10^7 cells/ml. To 1 ml portions of cell suspension, test drugs or vehicle are added and incubated at 37° C. for 10 minutes. Following this preincubation, the calcium ionophore (10 μM), A23187, is added together with 0.5 μCi [^14 C] arachidonic acid and further incubated for 10 minutes. The reaction is stopped by the addition of ice cold water (3 ml) and acidification to pH 3.5. Lipoxygenase products are then extracted twice into diethyl ether. The pooled ether extracts are evaporated to dryness under nitrogen and the residue is redissolved in a small volume of methanol and spotted on aluminum backed pre-coated thin layer chromatographic plates. The samples are then co-chromatographed with authentic reference 5,12-diHETE in the solvent system-hexane:ether:acetic acid (50:50:3). After chromatography, the areas associated with 5,12-diHETE standard are identified by autoradiography, cut out and quantitated by liquid scintillation.
Results are expressed as the 50% Inhibitory concentration, or as percent inhibition at a given.

[5] = test system: TxB2 synthesis (cyclooxygenase); experiment: Inhibition of synthesis of cyclooxygenase oxidation product TxB2 (rat polymorphonuclear leukocytes); format: cell-based; conditions: Leukocyte, rat PMN
Description: as §1
The procedure of Example 17 is also employed for the determination of the ability of the compounds of the invention to inhibit the synthesis of the arachidonic acid cyclooxygenase oxidation product TxB2.
In this assay, the procedure of Example 17 is carried out as described. However, in order to determine cyclooxygenase activity, the samples are cochromatographed with authentic reference TxB2 in the solvent system ethyl acetate:formic acid (80:1) and the upper phase of ethyl acetate:isoctane:acetic acid:water (110:50:20:100). After chromatography, the areas associated with TxB2 standard are identified by autoradiography, cut out and quantitated by liquid scintillation techniques.
The results are calculated as in Example 12 and presented below: […]

[6] = molecular target: T1, LTD4 (contraction of isolated guinea pig trachea) (Cavia porcellus, UniProt Q2NNR5); conditions: literature value, reference (1); cited from earlier work
T1 construct: The tracheal ring is suspended between a glass hook and a force displacement transducer in a 10 ml organ bath; from tissue; host or cells: isolated tracheal rings of male Hartley guinea pigs
T1 sequence (Q2NNR5 1-340): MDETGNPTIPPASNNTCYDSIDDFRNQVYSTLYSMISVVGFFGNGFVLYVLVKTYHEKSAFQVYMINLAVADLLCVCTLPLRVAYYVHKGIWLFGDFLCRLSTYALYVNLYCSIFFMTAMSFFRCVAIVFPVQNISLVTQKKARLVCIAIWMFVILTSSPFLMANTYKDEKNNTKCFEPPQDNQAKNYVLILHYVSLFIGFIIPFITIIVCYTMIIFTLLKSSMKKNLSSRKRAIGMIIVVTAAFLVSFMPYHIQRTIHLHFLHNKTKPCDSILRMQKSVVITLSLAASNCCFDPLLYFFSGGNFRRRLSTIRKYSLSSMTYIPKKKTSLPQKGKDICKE

[7] = molecular target: T1, LTD4 (contraction of isolated guinea pig trachea); experiment: Isolated guinea pig trachea assay, LTD4 antagonist activity; format: cell-based
Description: The compounds of the invention are tested in the isolated guinea pig trachea assay to assess their LTD4 antagonist activity. Male Hartley guinea pigs (350-400 g) are euthanized by a blow to the head, the neck is opened and the trachea removed. The trachea is maintained in aerated physiological salt solution, cleared of connective tissue and fat and cut into rings approximately 2 mm in width (usually containing two cartilaginous segments per ring). Two pieces of silk suture are then passed through the lumen of the tracheal ring and are tied around the cartilage, one on each side of the trachealis muscle. The tracheal ring is suspended between a glass hook and a force displacement transducer in a 10 ml organ bath for measurement of isometric tension. Tissues are maintained at 37° C. in aerated (95% O2 /5% CO2) physiological salt solution of the following composition: […] The tracheal rings are maintained at 2 g resting tension and equilibrated for 45 minutes (with frequent washing and readjustment of resting tension). The tracheal rings are first contracted by the addition of carbachol (3×10^-6 M), to determine tissue responsiveness and establish a reference contraction. On attainment of a stable level of contraction (approximately 30 minutes), the tissues are washed several times until baseline tension has been restored and then re-equilibrated for 30 minutes. The tissues are then incubated for 45 minutes with a test antagonist (either 1×10^-6 M or 1×10^-5 M) or 10 μl of an appropriate solvent control (control, non-treated). One tissue in each group serves as the control. Twenty minutes prior to the construction of the LTD4 cumulative concentration-response curve, L-[…]×10^-2 M final bath concentration) is added to inhibit bioconversion of LTD4 to LTE4. Only one LTD4 concentration-response curve is constructed in each tissue. All responses to LTD4 are calculated as a percentage of the reference contraction to carbachol. LTD4 antagonist activity is determined by comparison of the concentration response curves of LTD4 in the presence and absence of antagonist. Assessment of the relative rightward shift of the antagonist treated curve relative to the solvent (control) treated tissue is calculated as a concentration ratio (Eq. A) and used in subsequent calculations to derive an antagonist pKB value (Eqs B&C). In the event that the maximum response to LTD4 is depressed, the EC50 for that particular curve is determined, an "apparent" pKB reported, and the compound reported as "not-competitive."

[8] = A23187 10 μM, read-out: 50% Inhibitory Concentration (IC50)
[9] = reference compounds, LTD4 concentration-response curve, read-out: pKB (converted)

IC50 [4, 8]: 3200 nM | IC50 [5, 8]: 1700 nM
SMILES: O=S(=O)(Nc1cccc(OCc2csc(-c3ccccc3)n2)c1)C(F)(F)F [Example 3, 1,1,1-Trifluoro-N-[3-[(2-phenyl-4-thiazolyl)methoxy]phenyl]methanesulfonamide]
ED50 ([1]; Cavia porcellus, intragastrically, read-out: ED50): 2.4 mg/kg | ED50 ([1]; intragastrically): 3.0 mg/kg | inhibition in vivo at 50 mg/kg [2]: 51% | % Inhibition [3]: 10%

SMILES: O=S(=O)(Nc1cccc(OCc2csc(-c3ccc(F)cc3)n2)c1)C(F)(F)F [Example 9B, 1,1,1-Trifluoro-N-[3-[[2-(4-fluorophenyl)-4-thiazolyl]methoxy]phenyl]methanesulfonamide]
inhibition in vivo at 25 mg/kg ([1]; Cavia porcellus, intraduodenal, 25 mg/kg, intraduodenally): 100% | inhibition in vivo at 10 mg/kg ([1]; Cavia porcellus, po, 10 mg/kg, intragastrically): 92% | inhibition in vivo at 50 mg/kg [2]: 55% | inhibition at 10 µM ([4]; 10 μM): 64% | inhibition at 10 µM ([5]; 10 μM): 32%

Kb [7, 9]: 126 nM
SMILES: CCCc1c(OCCCCc2nn[nH]n2)ccc(C(C)=O)c1O [LY-171,883, reference compound]
pKB (Reference) [6]: 6.65

Kb ([7]; antagonist concentration 1 × 10^-6 M, read-out: pKB ± S.E. (converted)): 83.2 nM | Kb [7, 9]: 36.3 nM
SMILES: O=S(=O)(Nc1cccc(OCc2ccc3ccccc3n2)c1)C(F)(F)F [Wy-48,252, reference compound]
pKB (Reference) [6]: 7.70
